Tested on: subjects with chronic ITP
Assay: Combined 28-day and 6-month rollover studies of E5501: safety (TEAEs, serious TEAEs, thromboembolic events, neoplasms, liver toxicity, discontinuations)
Type: in vivo, human
Conditions: N=22
Excerpt: Primary Endpoint: The primary endpoint was to assess the safety and tolerability to E5501, including AEs and clinical laboratory parameters, over the 6 additional months of treatment.
In this way, safety data reflect each subject's complete duration of exposure to E5501 starting with lead-in the previous study and continuing into the current study.
Following Protocol Amendment 4, the current study contained a flexible dose regimen; therefore, this study was considered to have an open-label, uncontrolled, single-arm design. […] This was the method used to assess safety. • Grouping method B was based on both treatment received and day 28 platelet response to study drug in Study the previous study. This was the method used for the analysis of efficacy for the FAS and the SE population.
Overall Adverse Events. […] The primary focus is on summary statistics for the entire safety population and provides an overall safety profile for E5501. The summary statistics for each group, e.g., lower ⅓, middle ⅓ and upper ⅓ average daily dose levels, is secondary and provides further safety information across the 3 dose levels.

O=C(Nc1nc(-c2cc(Cl)cs2)c(N2CCN(C3CCCCC3)CC2)s1)c1cnc(N2CCC(C(=O)O)CC2)c(Cl)c1 [E5501, 1-(3-chloro-5-{[4-(4-chlorothiophen-2-yl)-5-(4-cyclohexylpiperazin-1-yl)thiazol-2-yl]carbamoyl}pyridine-2-yl)piperidine-4-carboxylic acid]
13: Suspected drug-related AEs, n of subjects (Lower ⅓ dose (2.5-<8.85 mg))
0 n (%): Serious TEAE Cerebrovascular accident, n (%) of subjects (Middle ⅓ dose (≧8.85-<13.5 mg)) | Serious TEAE Chest pain, n (%) of subjects (Middle ⅓ dose (≧8.85-<13.5 mg)) | Serious TEAE Diarrhoea, n (%) of subjects (Middle ⅓ dose (≧8.85-<13.5 mg)) | Serious TEAE Mitral valve incompetence, n (%) of subjects (Middle ⅓ dose (≧8.85-<13.5 mg)) | Serious TEAE Pyrexia, n (%) of subjects (Middle ⅓ dose (≧8.85-<13.5 mg)) | Serious TEAE Thrombocytopenia, n (%) of subjects (Middle ⅓ dose (≧8.85-<13.5 mg)) | Serious TEAE, SOC Blood and lymphatic system disorders, n (%) of subjects (Middle ⅓ dose (≧8.85-<13.5 mg)) | Serious TEAE, SOC General disorders and administration site conditions, n (%) of subjects (Middle ⅓ dose (≧8.85-<13.5 mg))
(13.6) %: Withdrawal due to TEAE, % of subjects (Lower ⅓ dose (2.5-<8.85 mg)) | Constipation, % of subjects (Middle ⅓ dose (≧8.85-<13.5 mg)) | Contusion, % of subjects (Middle ⅓ dose (≧8.85-<13.5 mg)) | Dose interruption due to TEAE, % of subjects (Middle ⅓ dose (≧8.85-<13.5 mg)) | Dyspnoea, % of subjects (Middle ⅓ dose (≧8.85-<13.5 mg)) | Epistaxis, % of subjects (Middle ⅓ dose (≧8.85-<13.5 mg)) | Insomnia, % of subjects (Middle ⅓ dose (≧8.85-<13.5 mg)) | Serious TEAE, % of subjects (Middle ⅓ dose (≧8.85-<13.5 mg))
0: Somnolence, n of subjects (Lower ⅓ dose (2.5-<8.85 mg)) | Abdominal pain upper, n of subjects (Middle ⅓ dose (≧8.85-<13.5 mg)) | Asthenia, n of subjects (Middle ⅓ dose (≧8.85-<13.5 mg)) | Cough, n of subjects (Middle ⅓ dose (≧8.85-<13.5 mg)) | Deaths, n of subjects (Middle ⅓ dose (≧8.85-<13.5 mg)) | Mouth haemorrhage, n of subjects (Middle ⅓ dose (≧8.85-<13.5 mg)) | Somnolence, n of subjects (Middle ⅓ dose (≧8.85-<13.5 mg))
(100.0) %: Any TEAE, % of subjects (Middle ⅓ dose (≧8.85-<13.5 mg))
(59.1) %: Suspected drug-related AEs, % of subjects (Lower ⅓ dose (2.5-<8.85 mg))
2 (9.1) n (%): Serious TEAE, SOC Nervous system disorders, n (%) of subjects (Middle ⅓ dose (≧8.85-<13.5 mg))
22: Any TEAE, n of subjects (Middle ⅓ dose (≧8.85-<13.5 mg))
1 (4.5) n (%): Serious TEAE Haemorrhage intracranial, n (%) of subjects (Middle ⅓ dose (≧8.85-<13.5 mg)) | Serious TEAE Lethargy, n (%) of subjects (Middle ⅓ dose (≧8.85-<13.5 mg)) | Serious TEAE Myocardial infarction, n (%) of subjects (Middle ⅓ dose (≧8.85-<13.5 mg)) | Serious TEAE Nausea, n (%) of subjects (Middle ⅓ dose (≧8.85-<13.5 mg)) | Serious TEAE Pelvic venous thrombosis, n (%) of subjects (Middle ⅓ dose (≧8.85-<13.5 mg)) | Serious TEAE Platelet count decreased, n (%) of subjects (Middle ⅓ dose (≧8.85-<13.5 mg)) | Serious TEAE Pneumonia, n (%) of subjects (Middle ⅓ dose (≧8.85-<13.5 mg)) | Serious TEAE Transient ischaemic attack, n (%) of subjects (Middle ⅓ dose (≧8.85-<13.5 mg)) | Serious TEAE Vomiting, n (%) of subjects (Middle ⅓ dose (≧8.85-<13.5 mg)) | Serious TEAE, SOC Cardiac disorders, n (%) of subjects (Middle ⅓ dose (≧8.85-<13.5 mg)) | Serious TEAE, SOC Gastrointestinal disorders, n (%) of subjects (Middle ⅓ dose (≧8.85-<13.5 mg)) | Serious TEAE, SOC Infections and infestations, n (%) of subjects (Middle ⅓ dose (≧8.85-<13.5 mg)) | Serious TEAE, SOC Investigations, n (%) of subjects (Middle ⅓ dose (≧8.85-<13.5 mg)) | Serious TEAE, SOC Vascular disorders, n (%) of subjects (Middle ⅓ dose (≧8.85-<13.5 mg))
2: Upper respiratory tract infection, n of subjects (Lower ⅓ dose (2.5-<8.85 mg)) | Back pain, n of subjects (Middle ⅓ dose (≧8.85-<13.5 mg)) | Ecchymosis, n of subjects (Middle ⅓ dose (≧8.85-<13.5 mg)) | Gingival bleeding, n of subjects (Middle ⅓ dose (≧8.85-<13.5 mg)) | Nausea, n of subjects (Middle ⅓ dose (≧8.85-<13.5 mg)) | Pain in extremity, n of subjects (Middle ⅓ dose (≧8.85-<13.5 mg)) | Platelet count increased, n of subjects (Middle ⅓ dose (≧8.85-<13.5 mg))
(22.7) %: Severe (grade 3-4) TEAEs, % of subjects (Middle ⅓ dose (≧8.85-<13.5 mg))
5: Severe (grade 3-4) TEAEs, n of subjects (Middle ⅓ dose (≧8.85-<13.5 mg))
1: Serious TEAE, n of subjects (Lower ⅓ dose (2.5-<8.85 mg)) | Serious treatment-related TEAEs, n of subjects (Lower ⅓ dose (2.5-<8.85 mg)) | Vomiting, n of subjects (Lower ⅓ dose (2.5-<8.85 mg)) | Diarrhoea, n of subjects (Middle ⅓ dose (≧8.85-<13.5 mg)) | Dizziness, n of subjects (Middle ⅓ dose (≧8.85-<13.5 mg)) | Migraine, n of subjects (Middle ⅓ dose (≧8.85-<13.5 mg)) | Petechiae, n of subjects (Middle ⅓ dose (≧8.85-<13.5 mg)) | Serious treatment-related TEAEs, n of subjects (Middle ⅓ dose (≧8.85-<13.5 mg)) | Upper respiratory tract infection, n of subjects (Middle ⅓ dose (≧8.85-<13.5 mg))
(40.9) %: Headache, % of subjects (Middle ⅓ dose (≧8.85-<13.5 mg))
3 (13.6) n (%): Any Serious TEAE, n (%) of subjects (Middle ⅓ dose (≧8.85-<13.5 mg))
3: Withdrawal due to TEAE, n of subjects (Lower ⅓ dose (2.5-<8.85 mg)) | Constipation, n of subjects (Middle ⅓ dose (≧8.85-<13.5 mg)) | Contusion, n of subjects (Middle ⅓ dose (≧8.85-<13.5 mg)) | Dose interruption due to TEAE, n of subjects (Middle ⅓ dose (≧8.85-<13.5 mg)) | Dyspnoea, n of subjects (Middle ⅓ dose (≧8.85-<13.5 mg)) | Epistaxis, n of subjects (Middle ⅓ dose (≧8.85-<13.5 mg)) | Insomnia, n of subjects (Middle ⅓ dose (≧8.85-<13.5 mg)) | Serious TEAE, n of subjects (Middle ⅓ dose (≧8.85-<13.5 mg))
(9.1) %: Upper respiratory tract infection, % of subjects (Lower ⅓ dose (2.5-<8.85 mg)) | Back pain, % of subjects (Middle ⅓ dose (≧8.85-<13.5 mg)) | Ecchymosis, % of subjects (Middle ⅓ dose (≧8.85-<13.5 mg)) | Gingival bleeding, % of subjects (Middle ⅓ dose (≧8.85-<13.5 mg)) | Nausea, % of subjects (Middle ⅓ dose (≧8.85-<13.5 mg)) | Pain in extremity, % of subjects (Middle ⅓ dose (≧8.85-<13.5 mg)) | Platelet count increased, % of subjects (Middle ⅓ dose (≧8.85-<13.5 mg))
7: Fatigue, n of subjects (Middle ⅓ dose (≧8.85-<13.5 mg))
(4.5) %: Serious treatment-related TEAEs, % of subjects (Lower ⅓ dose (2.5-<8.85 mg)) | Vomiting, % of subjects (Lower ⅓ dose (2.5-<8.85 mg)) | Diarrhoea, % of subjects (Middle ⅓ dose (≧8.85-<13.5 mg)) | Dizziness, % of subjects (Middle ⅓ dose (≧8.85-<13.5 mg)) | Migraine, % of subjects (Middle ⅓ dose (≧8.85-<13.5 mg)) | Petechiae, % of subjects (Middle ⅓ dose (≧8.85-<13.5 mg)) | Serious treatment-related TEAEs, % of subjects (Middle ⅓ dose (≧8.85-<13.5 mg)) | Upper respiratory tract infection, % of subjects (Middle ⅓ dose (≧8.85-<13.5 mg))
(68.2) %: Suspected drug-related AEs, % of subjects (Middle ⅓ dose (≧8.85-<13.5 mg))
9: Headache, n of subjects (Middle ⅓ dose (≧8.85-<13.5 mg))
(18.2) %: Severe (grade 3-4) TEAEs, % of subjects (Lower ⅓ dose (2.5-<8.85 mg)) | Arthralgia, % of subjects (Middle ⅓ dose (≧8.85-<13.5 mg))
4: Severe (grade 3-4) TEAEs, n of subjects (Lower ⅓ dose (2.5-<8.85 mg)) | Arthralgia, n of subjects (Middle ⅓ dose (≧8.85-<13.5 mg))
(31.8) %: Fatigue, % of subjects (Middle ⅓ dose (≧8.85-<13.5 mg))
15: Suspected drug-related AEs, n of subjects (Middle ⅓ dose (≧8.85-<13.5 mg))

— patent US20110166112A1, “METHOD FOR STIMULATING PLATELET PRODUCTION” (Eisai, Inc., priority 2009, published 2011)
